Key:
Test in all cases: relative viability (nuclei count vs DMSO), 5 days (fraction); higher = more cells survive
[1] = test system: CAL-12T
Outline: (§1)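 Lung cancer cell lines in 1536-well plates got either a single drug or a fixed anchor-drug dose together with five library-drug doses (not always all listed) in √10 steps, by pin tool, on the day after seeding. Nuclei were counted after 5 days, and relative viability is the treated-to-vehicle ratio of nuclei counts. Values are medians of duplicate plates.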

[2] = test system: NCI-H1666
Outline: as §1

[3] = test system: NCI-H1975
Outline: as §1

[4] = test system: NCI-H1755
Outline: as §1

[5] = test system: NCI-H441
Outline: as §1

[6] = test system: ChaGo-K-1
Outline: as §1

[7] = test system: HCC-15
Outline: as §1

[8] = test system: COR-L 105
Outline: as §1

[9] = test system: NCI-H2085
Outline: as §1

[10] = test system: NCI-H358
Outline: as §1

[11] = test system: NCI-H2126
Outline: as §1

[12] = test system: NCI-H3122
Outline: as §1

[13] = test system: NCI-H322M
Outline: as §1

[14] = test system: HCC-78
Outline: as §1

[15] = test system: NCI-H1993
Outline: as §1

[16] = test system: EPLC-272H
Outline: as §1

[17] = test system: HOP-62
Outline: as §1

[18] = test system: LXF-289
Outline: as §1

[19] = test system: NCI-H1915
Outline: as §1

[20] = test system: UMC-11
Outline: as §1

[21] = test system: EMC-BAC-2
Outline: as §1

[22] = test system: NCI-H2023
Outline: as §1

## O=C(O)c1ccc(-c2c[nH]c3ncc(-c4ccccc4)cc23)cc1C1CCCC1 + CC(=O)Nc1cccc(-n2c(=O)n(C3CC3)c(=O)c3c(Nc4ccc(I)cc4F)n(C)c(=O)c(C)c32)c1 [Trametinib] (partner 0.02 µM)
[1]; first compound 0.04 µM
  relative viability: 0.327
[1]; first compound 0.1265 µM
  relative viability: 0.372
[1]; first compound 0.4 µM
  relative viability: 0.369
[1]; first compound 1.265 µM
  relative viability: 0.333
[2]; first compound 0.04 µM
  relative viability: 0.916
[2]; first compound 0.1265 µM
  relative viability: 0.809
[2]; first compound 0.4 µM
  relative viability: 0.84
[2]; first compound 1.265 µM
  relative viability: 0.598
[3]; first compound 0.04 µM
  relative viability: 0.319
[3]; first compound 0.1265 µM
  relative viability: 0.435
[3]; first compound 0.4 µM
  relative viability: 0.395
[3]; first compound 1.265 µM
  relative viability: 0.32
[4]; first compound 0.04 µM
  relative viability: 0.778
[4]; first compound 0.1265 µM
  relative viability: 0.777
[4]; first compound 0.4 µM
  relative viability: 0.799
[4]; first compound 1.265 µM
  relative viability: 0.754
[5]; first compound 0.04 µM
  relative viability: 0.48
[5]; first compound 0.1265 µM
  relative viability: 0.494
[5]; first compound 0.4 µM
  relative viability: 0.393
[5]; first compound 1.265 µM
  relative viability: 0.464
[6]; first compound 0.04 µM
  relative viability: 1.15
[6]; first compound 0.1265 µM
  relative viability: 0.895
[6]; first compound 0.4 µM
  relative viability: 0.89
[6]; first compound 1.265 µM
  relative viability: 0.857
[7]; first compound 0.04 µM
  relative viability: 0.396
[7]; first compound 0.1265 µM
  relative viability: 0.395
[7]; first compound 0.4 µM
  relative viability: 0.409
[7]; first compound 1.265 µM
  relative viability: 0.351
[8]; first compound 0.04 µM
  relative viability: 0.402
[8]; first compound 0.1265 µM
  relative viability: 0.456
[8]; first compound 0.4 µM
  relative viability: 0.46
[8]; first compound 1.265 µM
  relative viability: 0.506
[9]; first compound 0.04 µM
  relative viability: 0.508
[9]; first compound 0.1265 µM
  relative viability: 0.488
[9]; first compound 0.4 µM
  relative viability: 0.499
[9]; first compound 1.265 µM
  relative viability: 0.384
[10]; first compound 0.04 µM
  relative viability: 0.146
[10]; first compound 0.1265 µM
  relative viability: 0.129
[10]; first compound 0.4 µM
  relative viability: 0.138
[10]; first compound 1.265 µM
  relative viability: 0.0857
[11]; first compound 0.04 µM
  relative viability: 0.597
[11]; first compound 0.1265 µM
  relative viability: 0.585
[11]; first compound 0.4 µM
  relative viability: 0.562
[11]; first compound 1.265 µM
  relative viability: 0.55
[12]; first compound 0.04 µM
  relative viability: 0.196
[12]; first compound 0.1265 µM
  relative viability: 0.24
[12]; first compound 0.4 µM
  relative viability: 0.253
[12]; first compound 1.265 µM
  relative viability: 0.277
[13]; first compound 0.04 µM
  relative viability: 0.482
[13]; first compound 0.1265 µM
  relative viability: 0.633
[13]; first compound 0.4 µM
  relative viability: 0.524
[13]; first compound 1.265 µM
  relative viability: 0.493
[14]; first compound 0.1265 µM
  relative viability: 0.937
[14]; first compound 0.4 µM
  relative viability: 0.945
[14]; first compound 1.265 µM
  relative viability: 0.829
[15]; first compound 0.04 µM
  relative viability: 0.473
[15]; first compound 0.1265 µM
  relative viability: 0.484
[15]; first compound 0.4 µM
  relative viability: 0.42
[15]; first compound 1.265 µM
  relative viability: 0.575
[16]; first compound 0.04 µM
  relative viability: 0.307
[16]; first compound 0.1265 µM
  relative viability: 0.27
[16]; first compound 0.4 µM
  relative viability: 0.283
[16]; first compound 1.265 µM
  relative viability: 0.276
[17]; first compound 0.04 µM
  relative viability: 0.37
[17]; first compound 0.1265 µM
  relative viability: 0.407
[17]; first compound 0.4 µM
  relative viability: 0.412
[17]; first compound 1.265 µM
  relative viability: 0.376
[18]; first compound 0.04 µM
  relative viability: 0.625
[18]; first compound 0.1265 µM
  relative viability: 0.685
[18]; first compound 0.4 µM
  relative viability: 0.666
[18]; first compound 1.265 µM
  relative viability: 0.535
[19]; first compound 0.04 µM
  relative viability: 0.293
[19]; first compound 0.1265 µM
  relative viability: 0.313
[19]; first compound 0.4 µM
  relative viability: 0.287
[19]; first compound 1.265 µM
  relative viability: 0.289
[20]; first compound 0.04 µM
  relative viability: 0.702
[20]; first compound 0.1265 µM
  relative viability: 0.719
[20]; first compound 0.4 µM
  relative viability: 0.711
[20]; first compound 1.265 µM
  relative viability: 0.641
[21]; first compound 0.04 µM
  relative viability: 0.903
[21]; first compound 0.1265 µM
  relative viability: 0.976
[21]; first compound 0.4 µM
  relative viability: 1.05
[21]; first compound 1.265 µM
  relative viability: 0.973
[22]; first compound 0.04 µM
  relative viability: 0.525
[22]; first compound 0.1265 µM
  relative viability: 0.55
[22]; first compound 0.4 µM
  relative viability: 0.618
[22]; first compound 1.265 µM
  relative viability: 0.413

— the supplement of paper PMC10307832
